Assay results from a melting point compilation (Tetko et al.; mined from patent text by program, amines drawn as free bases though some values may be those of a salt).

| SMILES | melting point [°C] |
| --- | --- |
| CCCC(=O)Cc1ccc(C(=O)Nc2ccc3cc(CN4CCCCC4)cnc3c2C)cc1 | 164 to 165 |
| COc1ccccc1-c1ccc(C(=O)N2Cc3ccc(C(=O)NCc4cccnc4)n3Cc3ccccc32)cc1C | 119 to 124 |
| CC1(Nc2ccccc2)OC(=O)C=C1c1ccccc1 (configuration not stated) | 158 to 160 |
| COc1ccc(CNc2nc3ccccc3c3[nH]c(C4CCCC4)nc23)cc1 | 245 to 247 |
| COCOc1ccc(-c2cc(S(C)=O)nn2-c2ccc(OC)cc2)cc1 (configuration not stated) | 137 |
| Cc1ccc(N2CCc3ccccc32)c([N+](=O)[O-])c1 | 93 to 95 |
| CC(Cn1ncc2ccc(OCc3ccccc3)cc21)O[Si](C)(C)C(C)(C)C (configuration not stated) | 56 to 58 |
| CCCCN(C)C(N)=C(C#N)C#N | 160 to 161 |
| CC1(C)CCC(C)(C)c2cc(N(Cc3ccc(Cl)cc3)C(=O)Nc3ccc(C(=O)O)cc3)ccc21 | 126 to 133 |
| O=C(CCC(=O)N1CCC[C@H]1C(=O)O)c1ccc(Cl)cc1 | 137 to 138 |
| COCc1nc2cc3c(cc2[nH]1)NC(=O)C3(C)C | 203 to 205 |
| CCSc1nc(-c2ccc(OC)cc2)c(-c2ccc(OC)cc2)[nH]1 | 108 to 109 |
| Nc1nnc(SCC(=O)C23CC4CC(CC(C4)C2)C3)s1 | 198 to 199 |
| CS(=O)(=O)c1ccc(-c2cc(=O)n(CC3CC3)nc2-c2ccc(F)cc2)cc1 | 130 to 132 |
| Cn1c(CC#N)ccc1C(=O)c1ccccc1Cl | 80 to 85 |
| O=C1OC(=O)c2c1ccc1ncccc21 | 247 to 250 |
| CCCOc1ccc(CCNC(=O)C(F)(F)F)cc1S(=O)(=O)N=CN(C)C | 142 |
| CC(=O)OC(C)OC(=O)N1c2ccccc2Sc2cc(O)c3ccccc3c21 (configuration not stated) | 102 to 112 |
| N=C(Nc1ccccc1-c1ccccc1)N1CCC(=NO)CC1 | 175 to 176 |
| Cc1cc(CNc2cccc3c2CN(C2CCC(=O)NC2=O)C3=O)oc1C (configuration not stated) | 237 to 239 |
| CCCCCC(C)NC1=NS(=O)(=O)c2sc(Cl)cc2N1 (configuration not stated) | 158 to 162 |
| CCCC(NS(=O)(=O)c1ccc(Cl)cc1)C(=S)Nc1ccc(CC(=O)O)cc1 (racemic) | 170 to 177 |
| CNC(=NC#N)Nc1cccc(C(=O)NCCSCc2ccc(CN(C)C)o2)c1 | 140 to 142 |
| COc1ccc(Cl)n2nc(SCc3ccccc3)nc12 | 99 to 100 |
| Cc1[nH]c(-c2ccccc2)c2nc[nH]c(=O)c12 | 295 to 296 |
| CC(C)(C)OC(=O)N[C@H](C(=O)N1CCC[C@H]1C(=O)OCc1ccccc1)C(C)(C)C | 174 |

| SMILES | melting point [°C] |
| --- | --- |
| CC(O)(C#Cc1ccc(S(=O)(=O)c2ccncc2)cc1)C(F)(F)F (configuration not stated) | 122 to 125 |
| O=C(C=NNc1cc(Oc2ncccn2)c(Cl)cc1F)C(F)(F)F | 188 to 190 |
| Cc1nc(N2CCN(CC(C)C)C2=O)sc1C(N)=O | 212 to 215 |
| O=c1[nH]nc(-c2cccc(Cl)c2)c2ncccc12 | 268 to 269 |
| O=C(COc1ccccc1)c1ccc(Cl)cc1 | 80 to 83 |
| COc1ccc(-n2nc(C#N)cc2-c2ccc(S(C)(=O)=O)cc2)cc1Br | 184 to 186 |
| CC(C)(C)C(=O)Oc1ccc(CNC(=O)c2cccnc2Oc2ccc(F)cc2)cc1 | 91 to 93 |
| CC(C)(C)OC(=O)N1CCC(CCCCN2C(=O)c3ccccc3C2=O)CC1 | 100 to 102 |
| CC(C)(C)OC(=O)N[C@@H](CC(N)=O)C(N)=O | 190 to 192 |
| CCOC(=O)c1noc(-c2ccc([N+](=O)[O-])cc2)n1 | 75 to 77 |
| C#CCn1ncc(=O)[nH]c1=O | 148 |
| CCn1ccc2c(c1=O)CN=C(N1CCNCC1)N2 | 117 to 120 |
| CC(C)(C)OC(=O)N1CCC[C@H]1COc1cccc2[nH]ccc12 | 40 to 41 |
| COc1cccc(-c2coc3ccc(-c4nnc(C)o4)cc23)c1 | 127 to 128 |
| COc1ccc(-c2sc3c(c2OC(C)=O)CCCc2ccccc2-3)cc1 | 154 |
| CCc1cccc(CNC[C@@H](O)[C@H](Cc2cc(F)cc(F)c2)NC(=O)c2ccc3ccncc3c2)c1 | 142 to 143 |
| COc1cc(N2CCN([C@H]3CC[C@@H](c4cccs4)CC3)CC2)c2ncccc2c1 | 184 to 186 |
| Cc1oc(-c2ccccc2)nc1COc1ccc(OCc2oc(-c3ccccc3)nc2/C=C/C(=O)O)cc1 | 209 to 210 |
| O=c1ccn(-c2cc(Cl)ccc2Cl)[nH]1 | 201 to 202 |
| CCN(CC)c1ccc(-c2cn(-c3ccc(C4=C(C#N)C(=C(C#N)C#N)OC4(C)C)cc3)nn2)cc1 | 275 |
| CSc1cnc(NC(=O)c2ccccc2OC(C)=O)s1 | 145 to 147 |
| c1ccc(Cc2ccc(-c3ccccc3)[nH]2)cc1 | 82 to 84 |
| CNC(=O)[C@@H](N)Cc1ccc(OC)cc1 | 90 to 91 |
| CCCCc1nnc(SCc2ccc(Cl)cc2)n1Cc1ccc(OC(C(=O)O)c2ccccc2)cc1 (configuration not stated) | 66 to 67 |
| COc1nc(I)cc(C(O)C(C)(C)C)c1C (configuration not stated) | 64 to 65 |
| CCc1c(-c2ccc(OC)cc2)c2c(C(=O)N(C)CCN(C)C)c(C(=O)O)c3cc(OC)cc1n32 | 221 to 223 |
